Molecules are shown by their SMILES. Like-named read-outs stand apart in the source and are kept apart here.

One experiment deals with CDK2/Cyclin E1 (Homo sapiens, UniProt P24941). Put plainly: ADP-Glo Luminescent Kinase Assay (CDK2/E1-37C). Type of experiment: biochemical. The conditions noted are these: 0.18 nM CDK2/Cyclin E1, 100 μM ATP, 1.5 μM Histone H1, 37° C., 60 min pre-incubation; read-out: ADPGLO (CDK2/E1-37C): IC50. Here is the method:
Inhibition of CDK2/Cyclin E1 activity by the presence of small molecules was evaluated using ADP-Glo Luminescent Kinase Assay (Promega). Activated CDK2/Cyclin E1 was incubated with its substrate Histone H1 (SignalChem H10-54N) in the kinase reaction buffer (100 μM ATP, 50 mM HEPES pH 7.5, 10 mM MgCl2, 1 mM EDTA, 2 mM DTT, 0.01% Brij35, 0.5 mg/mL BSA). Luminescence was recorded with an Envision plate reader (PerkinElmer).
Dose titrations of inhibitors in 100% DMSO were combined with 0.36 nM CDK2/Cyclin E1 in reaction buffer. The mixtures were incubated for 60 minutes at 37° C. before the addition of ATP and Histone H1 substrate to initiate the kinase reaction. The final conditions were 0.18 nM CDK2/Cyclin E1, 100 μM ATP, and 1.5 μM Histone H1. The reactions were incubated at 37° C. for 90 minutes before being stopped with the addition of ADP-Glo reagent. This mixture was incubated at room temperature for 60 minutes before Kinase Detection Solution is added to generate luminescence. The stopped reactions were analyzed on an Envision plate reader. The conversion ratios were normalized to yield % activity, plotted against compound concentration, and fit to a four-parameter equation to determine the IC50 for each compound.
For orientation: ADP-Glo turns the ADP formed in a reaction into a luminescent signal.

The next experiment has as its system Kuramochi cells. As to the kind of experiment: IncuCyte cell proliferation assay. It is filed as cell-based. As to the method: IncuCyte® assay was used to measure the effect of disclosed compounds on cell proliferation. Fluorescent microscopy images of cells were taken immediately after compound treatment and 72 hours later. Image analysis software was used to obtain cell counts as a function of compound concentration. Kuramochi cells labeled with mApple-H2B were seeded on 384-well assay-ready plates. Plates were placed in an IncuCyte® (Sartorius) and scanned at 0 and 72 hours. IncuCyte® software was used to count the number of fluorescent nuclei in each well. The fold change in cell count from 0 to 72 hours in wells treated with increasing compounds concentrations (10 pts, 1/2 log dilution, 20 μM top concentration) was normalized to DMSO control wells. The normalized cell counts were fit with dose response curves and a […] was calculated.

The mark [1] stands for this setting: Kuramochi cells labeled with mApple-H2B, cell count 0 to 72 hours, 20 μM top concentration, read-out: IncuCyte Kuramochi RB-WT: IC50.

`C[C@@H](OCC12CCC(CC1)OC2)[C@H](NC(=O)[C@@H]1CN(C(=O)c2cnn(Cc3ccc(C(F)(F)F)cc3)c2)CC12CN(C(=O)C1(C(F)(F)F)CC1)C2)C(=O)N1CCC(c2ccc(C(=O)O)cc2)CC1` [Example I-12]: the results for the IC50 on CDK2/Cyclin E1 and with Kuramochi cells (setting [1]) were less than 0.5 µM and greater than 20 µM, respectively. The matching figures for `CCOC(=O)CN(CC1CCCCC1)[C@H]1CCCN(C(=O)[C@@H]2CN(C(=O)c3cncs3)CC23CN(C(=O)[C@H]2CC2(C)C)C3)C1` [Example I-74]: 5 to 10 µM and greater than 20 µM. The corresponding values for `C[C@@H](OCC12CCC(CC1)OC2)[C@H](NC(=O)[C@@H]1CN(C(=O)c2cnc(O)cn2)CC12CN(C(=O)C1(C(F)(F)F)CC1)C2)C(=O)N1CCC(c2ccc(C(F)(F)F)c(C(=O)O)c2)CC1` [Example I-63] are less than 0.5 µM and greater than 20 µM. The corresponding values for `C[C@@H](OCC12CCC(CC1)OC2)[C@H](NC(=O)[C@@H]1CN(C(=O)c2cnn(Cc3ccccc3C(=O)O)c2)CC12CN(C(=O)C1(C(F)(F)F)CC1)C2)C(=O)N1CCNC2(CC2)C1` [Example I-112, 2-((4-((S)-8-(((2S,3R)-3-((2-oxabicyclo[2.2.2]octan-4-yl)methoxy)-1-oxo-1-(4,7-diazaspiro[2.5]octan-7-yl)butan-2-yl)carbamoyl)-2-(1-(trifluoromethyl)cyclopropane-1-carbonyl)-2,6-diazaspiro[3.4]octane-6-carbonyl)-1H-pyrazol-1-yl)methyl)benzoic acid] are less than 0.5 µM and greater than 20 µM.

As to `COc1ccc(S(=O)(=O)NC(=O)[C@@H](NC(=O)[C@@H]2CN(C(=O)c3cnn(Cc4ccccc4)c3)CC23CN(C(=O)[C@H]2CC2(C)C)C3)[C@@H](C)OCC2CCCCC2)cc1` [Example I-22], the IC50 on CDK2/Cyclin E1 is less than 0.5 µM; in the experiment with Kuramochi cells (setting [1]) it was 0.5 to 5 µM. As for `C[C@@H](OCC1CCCCC1)[C@H](NC(=O)[C@@H]1CN(C(=O)c2cnn(Cc3ccc(C(F)(F)F)cc3)c2)CC12CN(C(=O)[C@H]1CC1(C)C)C2)C(=O)N1CCC(c2ccc(C(=O)O)cc2)CC1` [Example I-29], the IC50 at CDK2/Cyclin E1 is less than 0.5 µM; in the experiment with Kuramochi cells (read-out: IncuCyte Kuramochi RB-WT: IC50 (μM)), 0.5 to 5 µM. For the compound `C[C@@H](OCC1CCCCC1)[C@H](NC(=O)[C@@H]1CN(C(=O)c2cnn(Cc3ccccc3)c2)CC12CN(C(=O)[C@H]1CC1(C)C)C2)C(=O)N1CCN(c2ccc(C(=O)O)cc2)CC1` [Example I-28], the IC50 at CDK2/Cyclin E1 is less than 0.5 µM; with Kuramochi cells (setting [1]), 0.5 to 5 µM. The matching figures for `COC(=O)CCNC(=O)[C@@H](NC(=O)[C@@H]1CN(C(=O)c2cnn(Cc3ccc(C(F)(F)F)cc3)c2)CC12CN(C(=O)C1(C(F)(F)F)CC1)C2)[C@@H](C)OCC12CCC(CC1)OC2` [Example I-84]: 0.5 to 5 µM and less than 0.5 µM. The matching figures for `C[C@@H](OCC12CCC(CC1)OC2)[C@H](NC(=O)[C@@H]1CN(C(=O)c2cnn(Cc3ccc(C(F)(F)F)cc3)c2)CC12CN(C(=O)C1(C(F)(F)F)CC1)C2)C(=O)NCCC(=O)O` [Example I-75]: 5 to 10 µM and greater than 20 µM. The corresponding values for `C[C@@H](OCC12CCC(CC1)OC2)[C@H](NC(=O)[C@@H]1CN(C(=O)c2cncs2)CC12CN(C(=O)C1(C(F)(F)F)CC1)C2)C(=O)N1CCC(c2nccs2)CC1` [Example I-34, (S)—N-((2S,3R)-3-((2-oxabicyclo[2.2.2]octan-4-yl)methoxy)-1-oxo-1-(4-(thiazol-2-yl)piperidin-1-yl)butan-2-yl)-6-(thiazole-5-carbonyl)-2-(1-(trifluoromethyl)cyclopropane-1-carbonyl)-2,6-diazaspiro[3.4]octane-8-carboxamide] are less than 0.5 µM and 0.5 to 5 µM. Turning to `C[C@@H](OCC12CCC(CC1)OC2)[C@H](NC(=O)[C@@H]1CN(C(=O)c2cnc(O)cn2)CC12CN(C(=O)C1CC1(C)C)C2)C(=O)N1CCC(c2ccc(C(F)(F)F)c(C(=O)O)c2)CC1` (stereo partly drawn) [Example I-90, 5-(1-(O-((2-oxabicyclo[2.2.2]octan-4-yl)methyl)-n-((s)-2-((s)-2,2-dimethylcyclopropane-1-carbonyl)-6-(5-hydroxypyrazine-2-carbonyl)-2,6-diazaspiro[3.4]octane-8-carbonyl)-L-threonyl)piperidin-4-yl)-2-(trifluoromethyl)benzoic acid], the IC50 was less than 0.5 µM on CDK2/Cyclin E1 and greater than 20 µM in the experiment with Kuramochi cells (setting [1]). The corresponding values for `CC1(C)C[C@@H]1C(=O)N1CC2(CN(C(=O)c3cncs3)C[C@H]2C(=O)N2CCC[C@@H](N(CC(=O)O)CC3CCCCC3)C2)C1` [Example I-71] are greater than 10 µM and greater than 20 µM. The matching figures for `C[C@@H](OCC1CCOCC1)[C@H](NC(=O)[C@@H]1CN(C(=O)c2cnn(Cc3ccc(C(F)(F)F)cc3)c2)CC12CN(C(=O)C1(C(F)(F)F)CC1)C2)C(=O)N1CCC(c2nccs2)CC1` [Example I-79, (S)—N-((2S,3R)-1-oxo-3-((tetrahydro-2H-pyran-4-yl)methoxy)-1-(4-(thiazol-2-yl)piperidin-1-yl)butan-2-yl)-6-(1-(4-(trifluoromethyl)benzyl)-1H-pyrazole-4-carbonyl)-2-(1-(trifluoromethyl)cyclopropane-1-carbonyl)-2,6-diazaspiro[3.4]octane-8-carboxamide]: less than 0.5 µM and 0.5 to 5 µM. Regarding `C[C@@H](OCC1(C(=O)O)CCCCC1)[C@H](NC(=O)[C@@H]1CN(C(=O)c2cnn(Cc3ccc(C(F)(F)F)cc3)c2)CC12CN(C(=O)C1(C(F)(F)F)CC1)C2)C(=O)N1CCC(c2nccs2)CC1` [Example I-76, 1-((((2R,3S)-4-oxo-4-(4-(thiazol-2-yl)piperidin-1-yl)-3-((S)-6-(1-(4-(trifluoromethyl)benzyl)-1H-pyrazole-4-carbonyl)-2-(1-(trifluoromethyl)cyclopropanecarbonyl)-2,6-diazaspiro[3.4]octane-8-carboxamido)butan-2-yl)oxy)methyl)cyclohexanecarboxylic acid], the IC50 at CDK2/Cyclin E1 was in the range of 5 to 10 µM. Take `C[C@H](OCC12CCC(CC1)OC2)[C@@H](NC(=O)[C@@H]1CN(C(=O)c2cnc(O)cn2)CC12CN(C(=O)C1(C(F)(F)F)CC1)C2)C(=O)N1CCC(c2ccc(C(F)(F)F)c(C(=O)O)c2)CC1` [Example I-82, 5-(1-(O-((2-oxabicyclo[2.2.2]octan-4-yl)methyl)-N—((S)-6-(5-hydroxypyrazine-2-carbonyl)-2-(1-(trifluoromethyl)cyclopropane-1-carbonyl)-2,6-diazaspiro[3.4]octane-8-carbonyl)-D-threonyl)piperidin-4-yl)-2-(trifluoromethyl)benzoic acid]: the IC50 in the experiment with Kuramochi cells (setting [1]) was greater than 20 µM. For the compound `C[C@@H](OCC12CCC(CC1)OC2)[C@@H](CN1CCC(C(=O)O)CC1)NC(=O)[C@@H]1CN(C(=O)c2cnn(Cc3ccc(C(F)(F)F)cc3)c2)CC12CN(C(=O)C1(C(F)(F)F)CC1)C2` [Example I-97, 1-((2R,3R)-3-((2-oxabicyclo[2.2.2]octan-4-yl)methoxy)-2-((S)-6-(1-(4-(trifluoromethyl)benzyl)-1H-pyrazole-4-carbonyl)-2-(1-(trifluoromethyl)cyclopropane-1-carbonyl)-2,6-diazaspiro[3.4]octane-8-carboxamido)butyl)piperidine-4-carboxylic acid], at CDK2/Cyclin E1, the IC50 is greater than 10 µM.

The values are drawn from patent US20260265262A1, “CDK2 INHIBITORS AND METHODS OF USING THE SAME” (Cedilla Therapeutics, Inc., priority 2022, published 2026).
